What was measured:
Assay in all cases: relative viability (nuclei count vs DMSO), 5 days (fraction); higher = more cells survive
NCI-H838 = system: NCI-H838
Procedure, shortened: (§1)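 Relative viability is defined as nuclei in treated wells over nuclei in vehicle wells. Duplicate plates were run and medians reported. Lung cancer cell lines in 1536-well plates were dosed by pin tool one day after seeding, with one drug or with a fixed anchor-drug dose plus five library-drug doses (not always all listed) in √10 steps, and nuclei were counted after 5 days.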

NCI-H322M = system: NCI-H322M
Procedure, shortened: as §1

UMC-11 = system: UMC-11
Procedure, shortened: as §1

NCI-H1755 = system: NCI-H1755
Procedure, shortened: as §1

NCI-H2228 = system: NCI-H2228
Procedure, shortened: as §1

PC-14 = system: PC-14
Procedure, shortened: as §1

NCI-H1734 = system: NCI-H1734
Procedure, shortened: as §1

NCI-H1793 = system: NCI-H1793
Procedure, shortened: as §1

NCI-H647 = system: NCI-H647
Procedure, shortened: as §1

NCI-H1993 = system: NCI-H1993
Procedure, shortened: as §1

COR-L23 = system: COR-L23
Procedure, shortened: as §1

COR-L 105 = system: COR-L 105
Procedure, shortened: as §1

HARA = system: HARA
Procedure, shortened: as §1

NCI-H1355 = system: NCI-H1355
Procedure, shortened: as §1

NCI-H358 = system: NCI-H358
Procedure, shortened: as §1

NCI-H2009 = system: NCI-H2009
Procedure, shortened: as §1

HOP-62 = system: HOP-62
Procedure, shortened: as §1

NCI-H2347 = system: NCI-H2347
Procedure, shortened: as §1

EKVX = system: EKVX
Procedure, shortened: as §1

NCI-H1395 = system: NCI-H1395
Procedure, shortened: as §1

SK-MES-1 = system: SK-MES-1
Procedure, shortened: as §1

Clc1ccc(Nc2nnc(Cc3ccncc3)c3ccccc23)cc1 [Vatalanib] + C[C@]1(O)C[C@@H](c2nc(-c3ccc4ccc(-c5ccccc5)nc4c3)c3c(N)nccn32)C1 [Linsitinib] (partner 1 µM)
relative viability (NCI-H838; first compound 0.04 µM): 1.01
relative viability (NCI-H838; first compound 0.1265 µM): 0.994
relative viability (NCI-H838; first compound 0.4 µM): 1.15
relative viability (NCI-H838; first compound 1.265 µM): 0.932
relative viability (NCI-H838; first compound 4 µM): 0.976
relative viability (NCI-H322M; first compound 0.04 µM): 0.939
relative viability (NCI-H322M; first compound 0.1265 µM): 0.83
relative viability (NCI-H322M; first compound 0.4 µM): 0.975
relative viability (NCI-H322M; first compound 1.265 µM): 0.959
relative viability (NCI-H322M; first compound 4 µM): 0.919
relative viability (UMC-11; first compound 0.04 µM): 1.03
relative viability (UMC-11; first compound 0.1265 µM): 0.808
relative viability (UMC-11; first compound 0.4 µM): 1.01
relative viability (UMC-11; first compound 1.265 µM): 1.04
relative viability (UMC-11; first compound 4 µM): 0.987
relative viability (NCI-H1755; first compound 0.04 µM): 0.984
relative viability (NCI-H1755; first compound 0.1265 µM): 1.04
relative viability (NCI-H1755; first compound 0.4 µM): 0.995
relative viability (NCI-H1755; first compound 1.265 µM): 0.991
relative viability (NCI-H1755; first compound 4 µM): 0.919
relative viability (NCI-H2228; first compound 0.04 µM): 0.825
relative viability (NCI-H2228; first compound 0.1265 µM): 0.508
relative viability (NCI-H2228; first compound 0.4 µM): 0.83
relative viability (NCI-H2228; first compound 1.265 µM): 0.664
relative viability (NCI-H2228; first compound 4 µM): 0.761
relative viability (PC-14; first compound 0.04 µM): 0.955
relative viability (PC-14; first compound 0.1265 µM): 0.905
relative viability (PC-14; first compound 0.4 µM): 1.03
relative viability (PC-14; first compound 1.265 µM): 0.955
relative viability (PC-14; first compound 4 µM): 0.871
relative viability (NCI-H1734; first compound 0.04 µM): 0.971
relative viability (NCI-H1734; first compound 0.1265 µM): 0.866
relative viability (NCI-H1734; first compound 0.4 µM): 1.03
relative viability (NCI-H1734; first compound 1.265 µM): 0.886
relative viability (NCI-H1734; first compound 4 µM): 0.859
relative viability (NCI-H1793; first compound 0.04 µM): 0.857
relative viability (NCI-H1793; first compound 0.1265 µM): 0.693
relative viability (NCI-H1793; first compound 0.4 µM): 0.816
relative viability (NCI-H1793; first compound 1.265 µM): 0.719
relative viability (NCI-H1793; first compound 4 µM): 0.819
relative viability (NCI-H647; first compound 0.04 µM): 1.02
relative viability (NCI-H647; first compound 0.1265 µM): 1.14
relative viability (NCI-H647; first compound 0.4 µM): 1.2
relative viability (NCI-H647; first compound 1.265 µM): 1.21
relative viability (NCI-H647; first compound 4 µM): 1.09
relative viability (NCI-H1993; first compound 0.04 µM): 0.699
relative viability (NCI-H1993; first compound 0.1265 µM): 0.754
relative viability (NCI-H1993; first compound 0.4 µM): 0.745
relative viability (NCI-H1993; first compound 1.265 µM): 0.727
relative viability (NCI-H1993; first compound 4 µM): 0.734
relative viability (COR-L23; first compound 0.04 µM): 0.978
relative viability (COR-L23; first compound 0.1265 µM): 0.943
relative viability (COR-L23; first compound 0.4 µM): 1.08
relative viability (COR-L23; first compound 1.265 µM): 0.811
relative viability (COR-L23; first compound 4 µM): 0.922
relative viability (COR-L 105; first compound 0.04 µM): 0.835
relative viability (COR-L 105; first compound 0.1265 µM): 0.87
relative viability (COR-L 105; first compound 0.4 µM): 1.12
relative viability (COR-L 105; first compound 1.265 µM): 0.772
relative viability (COR-L 105; first compound 4 µM): 0.941
relative viability (HARA; first compound 0.04 µM): 1.02
relative viability (HARA; first compound 0.1265 µM): 0.896
relative viability (HARA; first compound 0.4 µM): 1
relative viability (HARA; first compound 1.265 µM): 0.84
relative viability (HARA; first compound 4 µM): 0.838
relative viability (NCI-H1355; first compound 0.04 µM): 0.87
relative viability (NCI-H1355; first compound 0.1265 µM): 0.818
relative viability (NCI-H1355; first compound 0.4 µM): 0.915
relative viability (NCI-H1355; first compound 1.265 µM): 0.772
relative viability (NCI-H1355; first compound 4 µM): 0.763
relative viability (NCI-H358; first compound 0.04 µM): 0.898
relative viability (NCI-H358; first compound 0.1265 µM): 0.718
relative viability (NCI-H358; first compound 0.4 µM): 0.917
relative viability (NCI-H358; first compound 1.265 µM): 0.699
relative viability (NCI-H358; first compound 4 µM): 0.578
relative viability (NCI-H2009; first compound 0.04 µM): 1.16
relative viability (NCI-H2009; first compound 0.1265 µM): 1.04
relative viability (NCI-H2009; first compound 0.4 µM): 1.3
relative viability (NCI-H2009; first compound 1.265 µM): 1.16
relative viability (NCI-H2009; first compound 4 µM): 1.18
relative viability (HOP-62; first compound 0.04 µM): 0.785
relative viability (HOP-62; first compound 0.4 µM): 1.02
relative viability (HOP-62; first compound 1.265 µM): 0.922
relative viability (HOP-62; first compound 4 µM): 0.876
relative viability (NCI-H2347; first compound 0.04 µM): 1.01
relative viability (NCI-H2347; first compound 0.1265 µM): 0.908
relative viability (NCI-H2347; first compound 0.4 µM): 0.976
relative viability (NCI-H2347; first compound 1.265 µM): 0.901
relative viability (NCI-H2347; first compound 4 µM): 0.942
relative viability (EKVX; first compound 0.04 µM): 1.03
relative viability (EKVX; first compound 0.1265 µM): 0.89
relative viability (EKVX; first compound 0.4 µM): 0.941
relative viability (EKVX; first compound 1.265 µM): 0.814
relative viability (EKVX; first compound 4 µM): 0.776
relative viability (NCI-H1395; first compound 0.04 µM): 1.14
relative viability (NCI-H1395; first compound 0.1265 µM): 0.99
relative viability (NCI-H1395; first compound 0.4 µM): 1.63
relative viability (NCI-H1395; first compound 1.265 µM): 0.998
relative viability (NCI-H1395; first compound 4 µM): 0.86
relative viability (SK-MES-1; first compound 0.04 µM): 1.04
relative viability (SK-MES-1; first compound 0.1265 µM): 1.03
relative viability (SK-MES-1; first compound 0.4 µM): 1.17
relative viability (SK-MES-1; first compound 1.265 µM): 1.02
relative viability (SK-MES-1; first compound 4 µM): 0.928
